Reference: patent US11072588B2, “Barbituric acid derivatives comprising cationic and lipophilic groups” (UNIVERSITETET I TROMSØ—NORGES ARKTISKE UNIVERSITET, priority 2017, dated 2021)
Values after ≈ are worked out from the molar mass of the structure shown.

Assays:
S. epidermidis = test: Anti-biofilm activity (inhibition of biofilm formation); format: cell-based; conditions: Staphylococcus epidermidis, read-out: Anti-biofilm IC50
E. coli 50579417 = test: MIC, multi-resistant clinical isolate; format: cell-based, Escherichia coli
Experimental: (§1) Working solutions of the test derivatives were prepared with up to 100% DMSO and stored at −20° C. If necessary, the solutions were heated to 40-80° C. before testing to facilitate complete dissolution. Double-distilled water was used in all dilutions prepared. […] A microdilution susceptibility test was used for MIC determination according to Clinical and Laboratory Standards Institute, “Methods for Dilution Antimicrobial Sisceptibility Tests for Bacteria That Graw Aerobically”, Approved Standard M07-A9, edition 2012, with modifications as described by Igumnova et al (Bioorg Med Chem, 2016, 24 (22), 5884-5894).
(§2) Briefly, the bacterial inoculum was adjusted to approximately 2.5-3×10^4 cells/mL in Mueller-Hinton broth (MHB, Difco Laboratories, USA), and incubated in a ratio of 1:1 with test derivatives in polystyrene 96-well flat-bottom microplates (NUNC, Roskilde, Denmark). Positive growth control (without test derivatives) and negative control (without bacteria) were included. The reference antibiotic was oxytetracycline hydrochloride (Sigma Aldrich, Saint Louis, Mo., USA). The microplates were incubated in an EnVision microplate reader (Perkin-Elmer, Turku, Finland) placed in an incubator set to 35° C. for 48 h. The MIC value was defined as the lowest concentration of derivative resulting in no bacterial growth as determined by OD600 measurement. All derivatives were tested in three parallels.
(§3) The MIC was determined as explained above with some exceptions; working solutions of test derivatives were prepared from concentrated DMSO stocks stored at room temperature, the density of the bacterial inoculum was increased 40× to 1-1.2×10^6 cells/mL, enterococci were incubated in Brain Heart Infusion broth (BHIB, Difco Laboratories, USA), the microplates were incubated for 24 h, and the derivatives were tested in four parallels.

E. coli 50676002 = test: MIC, multi-resistant clinical isolate; format: cell-based, Escherichia coli
Experimental: as §1, §2, §3

E. coli 50857972 = test: MIC, multi-resistant clinical isolate; format: cell-based, Escherichia coli
Experimental: as §1, §2, §3

E. coli 50739822 = test: MIC, multi-resistant clinical isolate; format: cell-based, Escherichia coli
Experimental: as §1, §2, §3

E. coli 50639799 = test: MIC, multi-resistant clinical isolate; format: cell-based, Escherichia coli
Experimental: as §1, §2, §3

P. aeruginosa 50692520 = test: MIC, multi-resistant clinical isolate; format: cell-based, Pseudomonas aeruginosa
Experimental: as §1, §2, §3

P. aeruginosa K44-24 = test: MIC, multi-resistant clinical isolate; format: cell-based, Pseudomonas aeruginosa
Experimental: as §1, §2, §3

P. aeruginosa K34-73 = test: MIC, multi-resistant clinical isolate; format: cell-based, Pseudomonas aeruginosa
Experimental: as §1, §2, §3

[1] = tested on: Staphylococcus aureus ATCC 9144; test: MIC assay, antibiotic susceptible reference strain; format: cell-based; conditions: Staphylococcus aureus, ATCC9144, read-out: Antimicrobial activity (MIC) S. a
Outline: (§4)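 Broth microdilution followed CLSI M07-A9 with modifications: inoculum ~2.5-3×10^4 cells/mL in Mueller-Hinton broth, mixed 1:1 with test derivative, incubated 48 h at 35 °C. MIC was the lowest concentration giving no growth by OD600, tested in three parallels, with oxytetracycline as reference antibiotic.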

[2] = tested on: Corynebacterium glutamicum ATCC 13032; test: MIC assay, antibiotic susceptible reference strain; format: cell-based; conditions: Corynebacterium glutamicum, ATCC13032, read-out: Antimicrobial activity (MIC) C. g
Outline: as §4

[3] = tested on: Pseudomonas aeruginosa PA01, DSM 19880 (ATCC 15692); test: MIC assay, antibiotic susceptible reference strain; format: cell-based; conditions: Pseudomonas aeruginosa, read-out: Antimicrobial activity (MIC) P. a
Outline: as §4

[4] = tested on: Escherichia coli ATCC 25922; test: MIC assay, antibiotic susceptible reference strain; format: cell-based; conditions: Escherichia coli, ATCC25922, read-out: Antimicrobial activity (MIC) E. c
Outline: as §4

[5] = tested on: panel of 30 multi-resistant clinical isolates of Gram-positive and Gram-negative bacteria; test: MIC screening, ranges over the panel of clinical isolates; format: cell-based; conditions: read-out: MIC values against all the 30 multi-resistant clinical isolates
Experimental: as §1, §2, §3

E. faecium 50758899 = test: MIC, multi-resistant clinical isolate; format: cell-based, Enterococcus faecium
Experimental: as §1, §2, §3

E. faecium TUH50-22 = test: MIC, multi-resistant clinical isolate; format: cell-based, Enterococcus faecium
Experimental: as §1, §2, §3

E. faecium K36-18 = test: MIC, multi-resistant clinical isolate; format: cell-based, Enterococcus faecium
Experimental: as §1, §2, §3

E. faecium 50673722 = test: MIC, multi-resistant clinical isolate; format: cell-based, Enterococcus faecium
Experimental: as §1, §2, §3

E. faecium 50901530 = test: MIC, multi-resistant clinical isolate; format: cell-based, Enterococcus faecium
Experimental: as §1, §2, §3

S. aureus N315 = test: MIC, multi-resistant clinical isolate; format: cell-based, Staphylococcus aureus
Experimental: as §1, §2, §3

S. aureus IHT 99040 = test: MIC, multi-resistant clinical isolate; format: cell-based, Staphylococcus aureus
Experimental: as §1, §2, §3

S. aureus NCTC 10442 = test: MIC, multi-resistant clinical isolate; format: cell-based, Staphylococcus aureus
Experimental: as §1, §2, §3

S. aureus strain WIS = test: MIC, multi-resistant clinical isolate; format: cell-based, Staphylococcus aureus
Experimental: as §1, §2, §3

S. aureus strain 85/2082 = test: MIC, multi-resistant clinical isolate; format: cell-based, Staphylococcus aureus
Experimental: as §1, §2, §3

[6] = Escherichia coli, read-out: Antimicrobial activity (MIC)
[7] = Enterococcus faecium, read-out: Antimicrobial activity (MIC)

Compound: CC(C)(C)c1cc(CC2(Cc3cc(C(C)(C)C)cc(C(C)(C)C)c3)C(=O)N(CCCCN)C(=O)N(CCCCN)C2=O)cc(C(C)(C)C)c1 [7(iii), 1,3-bis(4-aminobutyl)-5,5-bis(3,5-di-tert-butylbenzyl)-pyrimidin-2,4,6(1H,3H,5H)-trione]
- IC50 (S. epidermidis): 1 µg/mL (≈ 1.48 µM)
- MIC (E. coli 50579417; [6]): 4 µg/mL (≈ 5.93 µM)
- selectivity index (EC50/MIC) (E. coli 50579417; RBC EC50 / MIC): (<1)
- MIC (E. coli 50676002; Escherichia coli, 50676002, read-out: Antimicrobial activity (MIC)): 8 µg/mL (≈ 11.9 µM)
- selectivity index (EC50/MIC) (E. coli 50676002; RBC EC50 / MIC, E. coli 50676002): (<0.5
- MIC (E. coli 50857972; [6]): 4 µg/mL (≈ 5.93 µM)
- selectivity index (EC50/MIC) (E. coli 50857972; RBC EC50 / MIC): (<1)
- MIC (E. coli 50739822; [6]): 4 µg/mL (≈ 5.93 µM)
- selectivity index (EC50/MIC) (E. coli 50739822; RBC EC50 / MIC): (<1)
- MIC (E. coli 50639799; [6]): 4 µg/mL (≈ 5.93 µM)
- selectivity index (EC50/MIC) (E. coli 50639799; RBC EC50 / MIC): (<1)
- MIC (P. aeruginosa 50692520; Pseudomonas aeruginosa, read-out: Antimicrobial activity (MIC)): 8 µg/mL (≈ 11.9 µM)
- selectivity index (EC50/MIC) (P. aeruginosa 50692520; RBC EC50 / MIC): (<0.5)
- MIC (P. aeruginosa K44-24; Pseudomonas aeruginosa, K4424, read-out: Antimicrobial activity (MIC)): 8 µg/mL (≈ 11.9 µM)
- selectivity index (EC50/MIC) (P. aeruginosa K44-24; RBC EC50 / MIC): (<0.5)
- MIC (P. aeruginosa K34-73; Pseudomonas aeruginosa, K3473, read-out: Antimicrobial activity (MIC)): 16 µg/mL (≈ 23.7 µM)
- selectivity index (EC50/MIC) (P. aeruginosa K34-73; RBC EC50 / MIC, P. aeruginosa K34-73): (<2.5)
- MIC [1]: 1 µg/mL (≈ 1.48 µM)
- MIC [2]: 0.25 µg/mL (≈ 0.37 µM)
- MIC [3]: 4 µg/mL (≈ 5.93 µM)
- MIC [4]: 2 µg/mL (≈ 2.96 µM)
- MIC [5]: 2 to 16 µg/mL (≈ 2.96 to 23.7 µM)
- MIC (E. faecium 50758899; [7]): 2 µg/mL (≈ 2.96 µM)
- selectivity index (EC50/MIC) (E. faecium 50758899; RBC EC50 / MIC): (<2)
- MIC (E. faecium TUH50-22; Enterococcus faecium, TUH5022, read-out: Antimicrobial activity (MIC)): 2 µg/mL (≈ 2.96 µM)
- selectivity index (EC50/MIC) (E. faecium TUH50-22; RBC EC50 / MIC): (<2)
- MIC (E. faecium K36-18; Enterococcus faecium, K3618, read-out: Antimicrobial activity (MIC)): 2 µg/mL (≈ 2.96 µM)
- selectivity index (EC50/MIC) (E. faecium K36-18; RBC EC50 / MIC, E. faecium K36-18): (<2)
- MIC (E. faecium 50673722; [7]): 2 µg/mL (≈ 2.96 µM)
- selectivity index (EC50/MIC) (E. faecium 50673722; RBC EC50 / MIC): (<2)
- MIC (E. faecium 50901530; [7]): 2 µg/mL (≈ 2.96 µM)
- selectivity index (EC50/MIC) (E. faecium 50901530; RBC EC50 / MIC): (<2)
- selectivity index (EC50/MIC) (S. aureus N315; RBC EC50 / MIC, S. aureus N315): (<2)
- MIC (S. aureus N315; Staphylococcus aureus, N315, read-out: Antimicrobial activity (MIC)): 2 µg/mL (≈ 2.96 µM)
- selectivity index (EC50/MIC) (S. aureus IHT 99040; RBC EC50 / MIC): (<2)
- MIC (S. aureus IHT 99040; Staphylococcus aureus, IHT99040, read-out: Antimicrobial activity (MIC)): 2 µg/mL (≈ 2.96 µM)
- selectivity index (EC50/MIC) (S. aureus NCTC 10442; RBC EC50 / MIC, S. aureus NCTC 10442): (<2)
- MIC (S. aureus NCTC 10442; Staphylococcus aureus, NCTC10442, read-out: Antimicrobial activity (MIC)): 2 µg/mL (≈ 2.96 µM)
- selectivity index (EC50/MIC) (S. aureus strain WIS; RBC EC50 / MIC, S. aureus strain WIS): (<2)
- MIC (S. aureus strain WIS; Staphylococcus aureus, read-out: Antimicrobial activity (MIC)): 2 µg/mL (≈ 2.96 µM)
- selectivity index (EC50/MIC) (S. aureus strain 85/2082; RBC EC50 / MIC, S. aureus strain 85/2082): (<2)
- MIC (S. aureus strain 85/2082; Staphylococcus aureus, 85/2082, read-out: Antimicrobial activity (MIC)): 2 µg/mL (≈ 2.96 µM)
